# Reference: article PMC7719179, “Small molecule inhibition of Dynamin-dependent endocytosis targets multiple niche signals and impairs leukemia stem cells” (Nature Communications, 2020)
# Several values for one entry are separate records, joined by “and”; a condition that tells them apart may be missing. Equal values may be shown once.
# Key:
# pre-LSC self-renewal = assay: Serial transplantation assay of thymocytes from treated Lmo2^Tg mice; type: in vivo, mouse
# Protocol: For primary transplantation, single-cell suspension of 2 × 10^6 thymocytes were intravenously injected into sublethally irradiated (650 Rads) isogenic Ly5.1 (Cd45.1) mice. Analysis was performed 4 weeks after transplantation and 5 × 10^6 thymocytes harvested from recipients were subsequently injected into sublethally irradiated (650 Rads) Ly5.1 (Cd45.1) recipients for the secondary and tertiary transplantations, as previously described.
# Supplementary Figure 3. In vivo effect of Dynole 34-2. a, Treatment schematic and pharmacokinetic analysis of serum levels (µ M) of Dynole 34-2 at different time points (15, 30, 60, 120 and 240 minutes) following a single intraperitoneal injection (grey arrow) in 5 recipients (A, B, C, D, E). Average maximum concentration (Cmax), the time taken to reach this maximum concentration (Tmax), and the half-life (T 1/2) of Dynole 34-2 in the serum of treated mice are indicated.
# Average concentration for each time point is indicated (bar). b , Treatment schematic and fold expansion of donor-derived L mo2-transgenic DN3a thymocytes enumerated in the thymus of primary (I), secondary (II) and tertiary (III) recipients, assessed four weeks after transplantation of cells harvested from 5 independent mice per cohort of donors. Number of recipients engrafted for each condition is indicated. Mean ± SD (N = number of independent mice analysed), Student’s t-test;
# [1] = system: Notch1 and Hes1 in Lmo2-transgenic DN3a thymocytes; assay: Surface Notch1 and intracellular Hes1 in Lmo2^Tg DN3a thymocytes on OP9-DL1; type: cell-based, mouse; details: Lmo2-transgenic DN3a thymocytes on OP9-DL1 overnight, 0.2 μM Dynole 34-2
# Protocol: Phosphoflow analysis was performed as previously described. Briefly, 2 × 10^6 cells stained for surface markers were subsequently resuspended into PBS 1× + 4% v/v paraformaldehyde and incubated for 10 min at 4 °C for fixation. Fixed cells were washed twice using PBS 1×, then resuspended in pre-chilled at −20 °C Perm Buffer III (BD Pharmingen) and incubated 30 min at 4 °C for permeabilization. Cells were washed twice using PBS 1× and incubated overnight at 4 °C in PBS 1× + 2% v/v fetal calf serum (FCS) with Cell Signalling purified antibodies (Genesearch Pty Ltd, Arundel QLD, Australia) against pSTAT5 (Tyr694; #9359), phospho-p38 MAPK (Thr180/Tyr182; #4511), phospho-p44/42 (Erk1/2; #9102), phospho-S6 (Ser235/236; #4856) and phospho-Akt (Ser473; #9271) or isotype control. […] Fluorescence-activated cell sorting (FACS) analysis was performed using LSRII and LSR Fortessa cytometers, following the gating strategies described in Supplementary Fig. 11. […]
# For in vitro NOTCH1 signalling activation assays, cells were seeded on OP9 and OP9-DL1 stromal cell lines as described in the co-culture assays section and incubated overnight with either Dynole 34-2 or Ruxolitinib or DAPT resuspended in DMSO. […] Cells were washed twice, fixed and analysed for intracellular HES1 detection by flow cytometry as described in the FACS analysis section. […]
# [2] = system: IL-3R, GM-CSFR and c-Kit endocytosis in Ba/F3-SGM3R cells; assay: Surface expression of IL-3R, GM-CSFR and KIT in Ba/F3-SGM3R cells; type: cell-based, murine; details: result in words
# Text: The coding sequence of murine Csf2ra (gm-csfr) and c-Kit was amplified by PCR from cDNA of bone marrow mononuclear cells of a healthy WT donor using primers mGmcsfr-FL-F and mGmcsfr-FL-R, and mKit-FL-F and mKit-FL-R, respectively (Table 3). The PCR product was cloned into the XhoI and EcoRI sites of pMIG-R1, which was kindly given by Pear et al.[82],[83]. Ba/F3 cells were infected with pMIG-R1/Gmcsfr retroviral supernatants produced in 293T cells, transduced cells were sorted with a BD Influx (BD Australia) and selected by culture in medium supplemented with 25 ng/mL rmGm-csf (#305-03, Pepro Tech, Rocky Hill NJ, USA) for 7 days. Finally, Ba/F3 cells stably expressing Gm-csfr were infected with pMIG-R1/Kit retroviral supernatants produced in 293T cells to generate Ba/F3-SMG3R cells, which were sorted with a BD Influx and maintained in medium supplemented with 5 ng/mL rmIL-3 (#213-13, Pepro Tech, Rocky Hill NJ, USA).
# Mean fluorescence intensity (MFI) ± SD of n=3 biological replicates are shown (*P<0.05, ** P<0.01, ***P<0.001 compared to vehicle) . Basal levels of pStat5 and pErk were measured in unstimulated BaF3-SGM3 R cells (white bar). c, Correlative studies between the relative levels of pStat5 (left) or pErk (right) and the relative survival of BaF3-SGM3R cells treated Dynole 34-2 . […]
# in BaF3-SGM3R cells treated with Dynole 34-2 . […] Baseline measured in unstimulated BaF3-SGM3 R cells
structure (smiles),measurement,setting,value
"CCCCCCCCNC(=O)C(C#N)=Cc1cn(CCCN(C)C)c2ccccc12 [Dynole 34-2, 2-Cyano-N-octyl-3-(1-(3-dimethylaminopropyl)-1H-indol-3-yl)-acrylamide]",repopulating activity in serial transplantation,"pre-LSC self-renewal; tertiary recipients, result in words",complete loss of repopulating activity
same,Fold expansion DN3a cells,pre-LSC self-renewal; transplant III,0.1 fold and 0.11 fold
same,Hes1 (MFI),[1],18345 MFI and 12543 MFI and 14751 MFI and 12961 MFI
same,Notch1 (MFI),[1],16352 MFI and 11570 MFI and 16901 MFI and 11730 MFI
same,"endocytosis of c-Kit, GM-CSFR and IL-3R",[2],impaired endocytosis
